Several values for one entry are separate records, joined by “and”; a condition that tells them apart may be missing. Equal values may be shown once. Read-outs that look alike come from different tables or passages of the source.
Assays:
Assay in all cases: Chymotrypsin coupled prolyl-isomerase assay
Format in all cases: biochemical
[1] = target: T1, CypG (Homo sapiens, UniProt Q13427); conditions: wild-type CypG; read-out: Wild-Type Cyclophilin Prolyl Isomerase Inhibition IC50 Values, CypG
T1 construct: PPIG (UniProtKB Entry Q13427: residues 1–179); His6 with thrombin site (pET28a LIC leader) (N); host or cells: E. coli BL21(DE3)
T1 sequence (Q13427 1-179): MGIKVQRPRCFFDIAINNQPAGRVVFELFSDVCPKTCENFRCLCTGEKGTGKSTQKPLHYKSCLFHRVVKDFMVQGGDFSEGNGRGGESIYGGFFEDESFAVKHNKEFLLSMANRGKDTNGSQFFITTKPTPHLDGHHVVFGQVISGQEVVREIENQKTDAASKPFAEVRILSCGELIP
In short: (§1)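 Chymotrypsin-coupled cis–trans isomerization of Suc-AAPF-AMC (5 µM) catalysed by 5 nM cyclophilin, run cold (2–3 °C) at pH 7.3 with 5 min compound preincubation.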

[2] = target: T2, CypC (Homo sapiens, UniProt P45877)
T2 construct: PPIC (UniProtKB Entry P45877: residues 24–212); host or cells: E. coli BL21(DE3)
T2 sequence (P45877 24-212): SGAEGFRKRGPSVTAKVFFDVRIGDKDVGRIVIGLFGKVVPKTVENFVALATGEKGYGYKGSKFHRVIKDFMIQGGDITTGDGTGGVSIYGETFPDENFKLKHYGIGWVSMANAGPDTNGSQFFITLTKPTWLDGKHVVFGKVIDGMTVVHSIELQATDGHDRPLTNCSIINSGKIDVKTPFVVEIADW
In short: as §1

[3] = target: T3, CypE (Homo sapiens, UniProt Q9UNP9)
T3 construct: PPIE (UniProtKB Entry Q9UNP9: residues 131–301); host or cells: E. coli BL21(DE3)
T3 sequence (Q9UNP9 131-301): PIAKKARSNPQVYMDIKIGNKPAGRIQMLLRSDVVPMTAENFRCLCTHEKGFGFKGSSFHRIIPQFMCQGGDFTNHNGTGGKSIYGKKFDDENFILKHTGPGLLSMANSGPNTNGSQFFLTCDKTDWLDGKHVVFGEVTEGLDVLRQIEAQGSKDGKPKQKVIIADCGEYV
In short: as §1

[4] = target: T4, CypA (Homo sapiens, UniProt P62937)
T4 construct: PPIA (UniProtKB Entry P62937: residues 1–165); made in house; host or cells: E. coli BL21(DE3)
T4 sequence (P62937 whole entry, the tested form may be a part): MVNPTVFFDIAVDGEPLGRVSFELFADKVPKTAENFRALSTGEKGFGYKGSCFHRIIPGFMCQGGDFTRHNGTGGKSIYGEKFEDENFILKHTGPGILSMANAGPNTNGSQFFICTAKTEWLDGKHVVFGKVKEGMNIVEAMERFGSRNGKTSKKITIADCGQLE
In short: as §1

[5] = target: T5, CypH (Homo sapiens, UniProt O43447)
T5 construct: PPIH (UniProtKB Entry O43447: residues 1–177); His6 with TEV site (2BT vector leader) (N); made in house; host or cells: E. coli BL21(DE3)
T5 sequence (O43447 whole entry, the tested form may be a part): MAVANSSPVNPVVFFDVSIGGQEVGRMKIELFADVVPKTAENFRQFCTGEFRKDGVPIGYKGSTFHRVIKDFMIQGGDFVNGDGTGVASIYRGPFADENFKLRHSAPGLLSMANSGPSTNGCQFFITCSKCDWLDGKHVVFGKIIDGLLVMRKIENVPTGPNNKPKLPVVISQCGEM
In short: as §1

## NC(=O)C1CCNC(=O)C=CC(=O)N2CCCC(Cc3ccccc3)(C2)C(=O)NC(Cc2ccc(-c3ccc(C=O)c(B(O)O)c3)cc2)C(=O)NCc2ccccc2CC(=O)N1 (stereo not shown) [Compound C3A]
[1]
  IC50: 40 µM
[2]; Dose 0.00457247 µM
  CypC prolyl-isomerase raw dose-response reading (Fig. 6c): 0.03895 and 0.0375
[2]; Dose 0.0137174 µM
  CypC prolyl-isomerase raw dose-response reading (Fig. 6c): 0.04174 and 0.04247 and 0.04306
[2]; Dose 0.0411523 µM
  CypC prolyl-isomerase raw dose-response reading (Fig. 6c): 0.05121 and 0.04011 and 0.04386
[2]; Dose 0.123457 µM
  CypC prolyl-isomerase raw dose-response reading (Fig. 6c): 0.05033 and 0.03342 and 0.04085
[2]; Dose 0.37037 µM
  CypC prolyl-isomerase raw dose-response reading (Fig. 6c): 0.03932 and 0.03966 and 0.05738
[2]; Dose 1.11111 µM
  CypC prolyl-isomerase raw dose-response reading (Fig. 6c): 0.0536 and 0.03667 and 0.04316
[2]; Dose 3.33333 µM
  CypC prolyl-isomerase raw dose-response reading (Fig. 6c): 0.03577 and 0.0377 and 0.04529
[2]; Dose 10 µM
  CypC prolyl-isomerase raw dose-response reading (Fig. 6c): 0.03905 and 0.04054 and 0.0318
[2]; Independent replicate 1, read-out: IC50 CypC
  IC50: > 10 µM
[2]; Independent replicate 2, read-out: IC50 CypC
  IC50: 15 ± 4 µM
[2]; Independent replicate 3, read-out: IC50 CypC
  IC50: 20 ± 10 µM
[2]; Independent replicate 4, read-out: IC50 CypC
  IC50: 19 ± 9 µM
[2]; wild-type CypC, read-out: Wild-Type Cyclophilin Prolyl Isomerase Inhibition IC50 Values, CypC
  IC50: 17 µM
[3]
  higher CypE inhibition potency of C3A over C5A: 75 fold
  selectivity for CypE over CypA: > 100 fold
[3]; Independent replicate 1, read-out: IC50 CypE
  IC50: 0.013 ± 0.003 µM
[3]; Independent replicate 2, read-out: IC50 CypE
  IC50: 0.018 ± 0.006 µM
[3]; Independent replicate 3, read-out: IC50 CypE
  IC50: 0.009 ± 0.002 µM
[3]; Independent replicate 4, read-out: IC50 CypE
  IC50: 0.012 ± 0.004 µM
[3]; prolyl-isomerase IC50
  selectivity for CypE over the other cyclophilins screened: 30- to 4,000 fold
[3]; prolyl-isomerase inhibition, 5 nM cyclophilin, read-out: IC50 CypE
  IC50: 0.013 ± 0.004 µM
[3]; prolyl-isomerase inhibition, read-out: IC50 CypE
  IC50: 0.013 µM
[3]; wild-type CypE, read-out: Wild-Type Cyclophilin Prolyl Isomerase Inhibition IC50 Values, CypE
  IC50: 0.013 µM
[4]; Dose 0.00114312 µM
  CypA prolyl-isomerase raw dose-response reading (Fig. 6c): 0.07306 and 0.07874 and 0.07172
[4]; Dose 0.00342936 µM
  CypA prolyl-isomerase raw dose-response reading (Fig. 6c): 0.06275 and 0.05859
[4]; Dose 0.0102881 µM
  CypA prolyl-isomerase raw dose-response reading (Fig. 6c): 0.07757 and 0.05083 and 0.08593
[4]; Dose 0.0308642 µM
  CypA prolyl-isomerase raw dose-response reading (Fig. 6c): 0.09366 and 0.07648 and 0.07092
[4]; Dose 0.0925926 µM
  CypA prolyl-isomerase raw dose-response reading (Fig. 6c): 0.1069 and 0.06289 and 0.07689
[4]; Dose 0.205761 µM
  CypA prolyl-isomerase raw dose-response reading (Fig. 6c): 0.06396 and 0.05394 and 0.06349 and 0.0486 and 0.04768 and 0.0647 and 0.04401 and 0.05288
[4]; Dose 0.277778 µM
  CypA prolyl-isomerase raw dose-response reading (Fig. 6c): 0.09488 and 0.06 and 0.09425
[4]; Dose 0.833333 µM
  CypA prolyl-isomerase raw dose-response reading (Fig. 6c): 0.06403 and 0.06231 and 0.07443
[4]; Dose 2.5 µM
  CypA prolyl-isomerase raw dose-response reading (Fig. 6c): 0.06101 and 0.05306 and 0.05126
[4]; Independent replicate 1, read-out: IC50 CypA
  IC50: ~3 µM
[4]; Independent replicate 2, read-out: IC50 CypA
  IC50: 2.2 ± 0.7 µM
[4]; Independent replicate 3, read-out: IC50 CypA
  IC50: 1.6 ± 0.7 µM
[4]; Independent replicate 4, read-out: IC50 CypA
  IC50: 4 ± 2 µM
[4]; wild-type CypA, read-out: Wild-Type Cyclophilin Prolyl Isomerase Inhibition IC50 Values, CypA
  IC50: 3 µM
[5]; Dose 0.00457247 µM
  CypH prolyl-isomerase raw dose-response reading (Fig. 6c): 0.05086 and 0.04496
[5]; Dose 0.0137174 µM
  CypH prolyl-isomerase raw dose-response reading (Fig. 6c): 0.05594 and 0.04525 and 0.04484
[5]; Dose 0.0411523 µM
  CypH prolyl-isomerase raw dose-response reading (Fig. 6c): 0.05731 and 0.04453 and 0.05359
[5]; Dose 0.123457 µM
  CypH prolyl-isomerase raw dose-response reading (Fig. 6c): 0.05145 and 0.04681 and 0.07329
[5]; Dose 0.37037 µM
  CypH prolyl-isomerase raw dose-response reading (Fig. 6c): 0.05882 and 0.04794 and 0.07376
[5]; Dose 1.11111 µM
  CypH prolyl-isomerase raw dose-response reading (Fig. 6c): 0.06718 and 0.05255 and 0.05895
[5]; Dose 3.33333 µM
  CypH prolyl-isomerase raw dose-response reading (Fig. 6c): 0.06287 and 0.05436 and 0.04825
[5]; Dose 10 µM
  CypH prolyl-isomerase raw dose-response reading (Fig. 6c): 0.04443 and 0.06084 and 0.04295
[5]; Independent replicate 1, read-out: IC50 CypH
  IC50: > 10 µM
[5]; Independent replicate 2, read-out: IC50 CypH
  IC50: > 50 µM
[5]; Independent replicate 3, read-out: IC50 CypH
  IC50: ~40 µM
[5]; Independent replicate 4, read-out: IC50 CypH
  IC50: > 50 µM
[5]; prolyl-isomerase inhibition, 5 nM cyclophilin, read-out: IC50 CypH
  IC50: > 50 µM
[5]; wild-type CypH, read-out: Wild-Type Cyclophilin Prolyl Isomerase Inhibition IC50 Values, CypH
  IC50: > 50 µM
